Source: patent US4826966A, “Radioiodinated branched carbohydrates” (The United States of America as represented by the United …, priority 1988, dated 1989)

Test: Distribution of radioactivity in tissues of female rats after intravenous administration
Format: in vivo
Conditions: for Distribution of radioactivity in brain / Distribution of radioactivity in thyroid: no unit in table; for Distribution of radioactivity in brain: b28 gives percent dose/g; for Distribution of radioactivity in thyroid: percent
Experimental: The distribution of radioactivity in tissues of female rats at 5 minutes, 15 minutes, 30 minutes and 60 minutes after intravenous administration of the iodinated compound is shown in the following table. The level of accumulation of radioactivity in the brain after injection of this agent was a significant 1.65 percent dose/g at 5 minutes but the blood levels were also high resulting in blood ratios of 1.6/1 at 5 minutes.

[1] = 1 h (head printed 1 HT/R), intravenous

Distribution of radioactivity in brain (5 min, intravenous): 1.6525 | Distribution of radioactivity in thyroid (5 min, intravenous): 20.6441 | blood levels (5 minutes, intravenous, in words): high | Distribution of radioactivity in thyroid (15 min, intravenous): 18.9149 | Distribution of radioactivity in thyroid (30 min, intravenous): 25.7085 | Distribution of radioactivity in brain [1]: 0.7237 | Distribution of radioactivity in thyroid [1]: 33.4920 | brain retention compared with the peak uptake at 5 minutes (60 minutes vs 5 minutes, intravenous): 50% | accumulation of activity in the thyroid (60 minutes, intravenous): 33.5% | retention in the brain (in words) (up to 60 minutes, intravenous): prolonged retention in the brain
Compound: CO[C@@H]1O[C@H](COC(C)=O)[C@@H](OC(C)=O)[C@@H](OC(C)=O)[C@@H]1/C=C/[125I] [methyl-2-deoxy-2-(E)-[^125 I]-iodovinyl-2,4,6-O-triacetyl-β-D-altropyranoside]
stability to in vivo deiodination (from thyroid accumulation at 60 minutes, in words): demonstrated the stability of this agent to in vivo deiodination
